Data from the NIST ThermoML archive (doi:10.1016/j.jct.2007.11.009).
± gives the expanded uncertainty stated by the source.

Test: refractive index (Na D-line) (dimensionless)
Conditions: 298.15 K; 101.33 kPa; Liquid; Standard Abbe refractometry

SMILES: c1ccccc1 [benzene]
- refractive index: 1.4979 ± 0.0007

SMILES: CCCCCCCC [octane]
- refractive index: 1.395 ± 0.0007
